# Data published in patent US9718817B2, “Aryl and heteroaryl ether compounds as ROR gamma modulators” (Glenmark Pharmaceuticals S.A., priority 2014, dated 2017).
# pIC50: −log10 of the molar value.
# Target: T1, GST-tagged ROR gamma ligand binding domain (LBD) (Homo sapiens, UniProt P51449)
# T1 construct: purchased Invitrogen
# T1 sequence (P51449 269-508 limits assumed): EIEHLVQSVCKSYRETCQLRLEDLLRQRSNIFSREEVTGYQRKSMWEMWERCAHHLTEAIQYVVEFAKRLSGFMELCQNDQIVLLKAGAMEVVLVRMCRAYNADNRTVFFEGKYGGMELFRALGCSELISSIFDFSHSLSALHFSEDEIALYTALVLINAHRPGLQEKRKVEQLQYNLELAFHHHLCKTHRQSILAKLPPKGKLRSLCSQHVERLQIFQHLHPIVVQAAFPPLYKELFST
# Assay: TR-FRET assay for ROR gamma (LanthaScreen co-activator peptide recruitment)
# Assay type: biochemical
# Details: for pIC50: class symbols, from dose response curve; for inhibition at 1 µM: compound 1 μM; for inhibition at 1 µM / inhibition at 10 µM: TR-FRET ratio 520/495, percent of control; for inhibition at 10 µM: compound 10 μM
# Method in brief: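 Antagonist mode: 10 nM GST-RORγ LBD pre-incubated with compound 1 h at 22 °C in 25 mM HEPES pH 7.4, 100 mM NaCl, 5 mM DTT, 0.01% BSA, 4% DMSO final. Then 300 nM fluorescein-D22 co-activator peptide plus 10 nM Tb-anti-GST added, 1 h at room temperature. IC50 by nonlinear regression of the 520/495 TR-FRET ratio as percent of no-compound control.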
SMILES,pIC50,inhibition at 1 µM,inhibition at 10 µM
"CCS(=O)(=O)c1ccc(CC(=O)Nc2ccc(OC(C)(C)c3ccc(Cl)c(Cl)c3)nc2)cc1 [Example 59, N-{6-[1-(3,4-Dichloro-phenyl)-1-methyl-ethoxy]-pyridin-3-yl}-2-(4-ethanesulfonyl-phenyl)-acetamide]",> 7.30,71.8%,86.7%
"CCS(=O)(=O)c1ccc(CC(=O)Nc2ccc(C#CCOc3ccc(Cl)cc3Cl)cc2)cc1 [Example 60, N-{4-[3-(2,4-Dichlorophenoxy)prop-1-yn-1-yl]phenyl}-2-[4-(ethylsulfonyl)phenyl]acetamide]",< 7.00,92.6%,90.4%
"CCS(=O)(=O)c1ccc(CC(=O)Nc2ccc(C#CCOc3ccc(Cl)c(Cl)c3)cc2)cc1 [Example 61, N-{4-[3-(3,4-Dichlorophenoxy)prop-1-yn-1-yl]phenyl}-2-[4-(ethylsulfonyl)phenyl]acetamide]",< 7.00,85.5%,92.9%
"CCS(=O)(=O)c1ccc(CC(=O)Nc2ccc(C#CC(C)(C)Oc3ccc(Cl)c(Cl)c3)cc2)cc1 [Example 62, N-{4-[3-(3,4-Dichlorophenoxy)-3-methylbut-1-yn-1-yl]phenyl}-2-[4-(ethylsulfonyl)phenyl]acetamide]",> 7.30,86.3%,90.2%
"CCS(=O)(=O)c1ccc(CC(=O)Nc2ccc(C#CC(C)(C)Oc3ccc(Cl)cc3Cl)cc2)cc1 [Example 63, N-{4-[3-(2,4-Dichloro-phenoxy)-3-methyl-but-1-yn-1-yl]-phenyl}-2-(4-ethanesulfonyl-phenyl)-acetamide]",> 7.30,80.5%,84.5%
"CCS(=O)(=O)c1ccc(CC(=O)Nc2ccc(C#CC(C)(C)Oc3ccc(Cl)cc3)cc2)cc1 [Example 64, N-{4-[3-(4-Chloro-phenoxy)-3-methyl-but-1-yn-1-yl]-phenyl}-2-(4-ethanesulfonyl-phenyl)-acetamide]",> 7.30,82.2%,84.2%
"CCS(=O)(=O)c1ccc(CC(=O)Nc2ccc(C#CC(C)(C)Oc3ccc(Cl)cc3F)cc2)cc1 [Example 65, N-{4-[3-(4-Chloro-2-fluoro-phenoxy)-3-methyl-but-1-yn-1-yl]-phenyl}-2-(4-ethanesulfonyl-phenyl)-acetamide]",> 7.30,83.9%,88.2%
"CCS(=O)(=O)c1ccc(CC(=O)Nc2ccc(C#CC(C)(C)Oc3ccc(Cl)c(F)c3)cc2)cc1 [Example 66, N-{4-[3-(4-Chloro-3-fluoro-phenoxy)-3-methyl-but-1-yn-1-yl]-phenyl}-2-(4-ethanesulfonyl-phenyl)-acetamide]",> 7.30,84.3%,87.5%
"CCS(=O)(=O)c1ccc(CC(=O)Nc2ccc(C#CC(C)(C)Oc3ccc(F)cc3Cl)cc2)cc1 [Example 67, N-{4-[3-(2-Chloro-4-fluoro-phenoxy)-3-methyl-but-1-yn-1-yl]-phenyl}-2-(4-ethanesulfonyl-phenyl)-acetamide]",,70.5%,75.7%
"CCS(=O)(=O)c1ccc(CC(=O)Nc2ccc(C#CC(C)(C)Oc3ccc(F)c(Cl)c3)cc2)cc1 [Example 68, N-{4-[3-(3-Chloro-4-fluoro-phenoxy)-3-methyl-but-1-yn-1-yl]-phenyl}-2-(4-ethanesulfonyl-phenyl)-acetamide]",,70.7%,79.9%
"CCS(=O)(=O)c1ccc(CC(=O)Nc2ccc(C#CC(C)(C)Oc3ccc(F)cc3F)cc2)cc1 [Example 69, N-{4-[3-(2,4-Difluoro-phenoxy)-3-methyl-but-1-yn-1-yl]-phenyl}-2-(4-ethanesulfonyl-phenyl)-acetamide]",7.00 to 7.30,71.6%,81.8%
